Results reported in ChEMBL document CHEMBL1157539, “Thousands of chemical starting points for antimalarial lead identification” (Nature, 2010).

Each compound was assayed on Plasmodium falciparum (assay: GSK_TCMDC: Inhibition of Plasmodium falciparum 3D7 in whole erythrocytes, using parasite LDH activity as an index of growth.). Details: Plasmodium falciparum, 3D7.
Format: functional, organism-based
`O=C(/C=C/c1ccc([N+](=O)[O-])cc1)N1CCC(CCN2CCC(c3c[nH]c4ccccc34)CC2)CC1` was tested, and the XC50 was 743 nM.
Work on `O=[N+]([O-])c1cccc(/C=N/Nc2ccnc3ccc(C(F)(F)F)cc23)c1` yielded an XC50 of 1090 nM.
Compound `CCN(CC)CCN(Cc1ccc(-c2ccc(C(F)(F)F)cc2)cc1)C(=O)Cn1c(CCc2cccc(F)c2F)cc(=O)c2c1CCCC2` has an XC50 of 866 nM.
Work on `CN(C)Cc1c(O)ccc2[nH]c(-c3cccc(F)c3)nc12` yielded an XC50 of 1000 nM.
For `c1ccc(OCCOc2ccc(Nc3ccnc4cc5ccccc5cc34)cc2)cc1`, the XC50 was 252 nM.
`Cc1ccc(/C=C/C(=O)NCCCCCN2CCC(c3c[nH]c4ccccc34)CC2)cc1` was tested, and the XC50 was 1010 nM.
Compound `CC1(C)CCC(C)(C)c2c1ccc(C1CCN(CCCCNC(=O)c3ccc(-c4ccc(Cl)cc4)cc3)CC1)c2O` has an XC50 of 477 nM.
Work on `Cc1cc(CN2C(=O)C(c3ccccc3)(c3ccccc3)N=C2N)c(C(F)(F)F)o1` yielded an XC50 of 956 nM.
`Oc1cccc(-c2nc(-c3cccc(I)c3)c(-c3ccc(-c4nc(-c5cccc(O)c5)[nH]c4-c4cccc(I)c4)cc3)[nH]2)c1` was tested, and the XC50 was 925 nM.
`CC1(C)NC(N)=NC(=N)N1OCCCOc1ccc(N)cc1` gave an XC50 of 7.04 nM.
Compound `CC(=O)C1(c2ccccc2)CCN(CCC2(c3ccc(Cl)c(Cl)c3)CN(C(=O)Nc3cccc(C(F)(F)F)c3)CCO2)CC1` (stereo unspecified) has an XC50 of 1050 nM.
In the case of `Cc1ccoc1C(=O)Nc1cccc(-c2cccc(-c3nc4cccc(C)c4[nH]3)c2)c1`, the XC50 is reported as 675 nM.
`O=C(Cc1ccccc1)NC(c1ccco1)c1cc(Cl)c2cccnc2c1O` (stereo unspecified) was tested, and the XC50 was 691 nM.
`COc1cc(OC)c2c(c1Cl)O[C@]1(C2=O)C(=O)C(Cc2ccccc2)(Cc2ccccc2)C(=O)C[C@H]1C` showed an XC50 of 974 nM.
For `COc1ccc2nccc(NCC3(O)CCC(NCc4ccc5c(n4)NC(=O)CS5)CC3)c2n1` (stereo unspecified), the XC50 was 689 nM.
`CN1CCN(c2cc(NC(=O)c3ccc(-c4ccc(C#N)cc4)cc3)ccc2Cl)CC1` was tested, and the XC50 was 464 nM.
Work on `NC1=NC(CCc2ccccc2)N(c2ccc(Cl)cc2)C(N)=N1` (stereo unspecified) yielded an XC50 of 38 nM.
With `CCC(C)NS(=O)(=O)c1ccc2nc(Nc3ccc(C)cc3)n([C@H](C)C(C)(C)C)c2c1` (stereo partly specified) the XC50 was 391 nM.
Work on `COc1cc(/C=C/C(=O)NC2CCC(N3CCC(c4ccccc4C)CC3)CC2)cc(OC)c1` (stereo unspecified) yielded an XC50 of 979 nM.
Work on `CCCOc1cc(NC(=O)Nc2ccnc3ccccc23)cc(OCCC)c1` yielded an XC50 of 732 nM.
`Cc1ccnc(-n2c(C)cc(C=C3SC(=Nc4ccccc4)N(Cc4ccco4)C3=O)c2C)c1` showed an XC50 of 237 nM.
`CN1CCC[C@H]1COc1ccc(CN2CC[C@H](NC(=O)c3ccc(Cl)c(Cl)c3)C2)cc1Cl` was tested, and the XC50 was 1150 nM.
With `Cc1cccc2nc(-c3cccc(-c4ccc(NC(=O)Nc5ccc(Cl)c(Cl)c5)cc4)c3)[nH]c12` the XC50 was 566 nM.
`Cc1cccc2nc(-c3cccc(-c4ccc(NC(=O)C(C)CN(C)C)cc4)c3)[nH]c12` (stereo unspecified) showed an XC50 of 222 nM.
With `CN1CCC(N(C)c2nccc(N3CCN(Cc4cncn4Cc4ccccc4)CC3)n2)CC1` the XC50 was 704 nM.
With `CCOc1cc(NCCSCc2nc[nH]c2C)nc2ccccc12` the XC50 was 792 nM.
With `O=C(/C=C/c1ccc(Cl)c(Cl)c1)N1CCC(CN2CCC(c3c[nH]c4ccc(NS(=O)(=O)c5cccs5)cc34)CC2)CC1` the XC50 was 218 nM.
With `Cc1ccccc1N1CCN(c2ccc(C(=O)NC3CC3)cn2)CC1` the XC50 was 459 nM.
For `CCC(C)(C)C1CCc2nc(N)nc(N)c2C1` (stereo unspecified), the XC50 was 6.38 nM.
Work on `COc1cccc(C=NN=c2cc(C)[nH]c3ccccc23)c1` yielded an XC50 of 937 nM.
For `Cc1cc(CNCCCCCCCNCc2ccc(Cl)cc2)ccc1O`, the XC50 was 975 nM.
`c1ccc2c(NCCOCCNc3c4ccccc4nc4ccccc34)c3ccccc3nc2c1` gave an XC50 of 878 nM.
`NC(=O)c1sc(-n2cnc3ccc(OCC4CCNCC4)cc32)cc1OCc1ccccc1C(F)(F)F` gave an XC50 of 753 nM.
`CC(C#N)Cc1ccc(-c2cnc(N)c3cc(-c4ccnc(N)n4)ccc23)cc1` (stereo unspecified) showed an XC50 of 986 nM.
Compound `CC(=O)Nc1ccc(CN2CCC(NC(=O)c3ccc(-c4ccc(N(C)C)cc4)s3)CC2)cc1` has an XC50 of 869 nM.
With `CC(=O)N(C)c1cccc(C(=O)Nc2ccc(-c3cccc(-c4nc5cc(C(F)(F)F)ccc5[nH]4)c3)cc2)c1` the XC50 was 724 nM.
`Cc1ccc(NS(=O)(=O)c2cccs2)cc1-c1cccc(C(=O)Nc2ccc(F)cc2)c1` showed an XC50 of 653 nM.
Work on `CC(C)C1CCc2nc(N)nc(N)c2C1` (stereo unspecified) yielded an XC50 of 139 nM.
In the case of `CCCCCCN1CCCN(Cc2ccc(C(=O)Nc3ccc(C(C)(C)C)cc3)cc2)CC1`, the XC50 is reported as 744 nM.
`Cc1cccc(CN2CCN(c3ncc(C(=O)NC4CC4)cc3Cl)CC2)c1` gave an XC50 of 1310 nM.
Work on `CCN(CCCN1CCCCC1)c1cc(C)nc(Nc2ccc(F)c(C(F)(F)F)c2)n1` yielded an XC50 of 147 nM.
Compound `CN(c1ccnc(Nc2ccc(CS(C)(=O)=O)cc2)n1)C1CCN(Cc2ccccc2)CC1` has an XC50 of 1400 nM.
`COC(=O)c1ccc(CC(C)NCC(O)c2ccc3ccc4ccccc4c3c2)cc1` (stereo unspecified) gave an XC50 of 223 nM.
`CCCCCCOc1ccc(N2C(N)=NC(N)=NC2(C)C)cc1` showed an XC50 of 344 nM.
In the case of `CC(C)c1sc(N2CCN(C)CC2)nc1C(=O)NCCc1ccc(Cl)c(Cl)c1`, the XC50 is reported as 1050 nM.
`O=C(Cc1ccccc1)NC(Nc1ccc([N+](=O)[O-])cc1)C(Cl)(Cl)Cl` (stereo unspecified) showed an XC50 of 973 nM.
`COc1ccccc1N1CCN(CCCCNC(=O)c2ccc(NC(=O)c3cc(Cl)cc(Cl)c3)cc2)CC1` was tested, and the XC50 was 458 nM.
Compound `O=C(/C=C/c1ccc(Cl)c(Cl)c1)NCCCCCN1CCC(NC(=O)c2ccc(F)c(F)c2)CC1` has an XC50 of 788 nM.
`COc1nc(NCC(C)C)nc(Oc2ccc(=O)n(Cc3ccccc3)n2)n1` gave an XC50 of 631 nM.
Work on `CCOC(=O)c1nc(-c2ccccc2)[nH]c1-n1nc(C)cc1C` yielded an XC50 of 686 nM.
`Cc1cc(N[C@@H](CC(C)C)C(=O)NCCc2ccccc2)nc(NCC2CCCCC2)n1` gave an XC50 of 904 nM.
Work on `CC(=O)Nc1nc(C(=O)Nc2cccc(-c3cccc(-c4nc5ccccc5[nH]4)c3)c2)cs1` yielded an XC50 of 172 nM.
`N#Cc1ccc(-c2ccc(C(=O)Nc3ccc4c(c3)CCN(C3CCC3)CC4)nc2)cn1` was tested, and the XC50 was 1160 nM.
`CC(=O)Oc1cc(C)ccc1C1CCN(CCCCNC(=O)c2ccc(NC(=O)c3ccc(Cl)cc3)cc2)CC1` was tested, and the XC50 was 721 nM.
In the case of `COc1ccc(NC(=O)[C@H](Cc2ccccc2)Nc2cc(C)nc(NCCc3ccc(F)cc3)n2)cc1`, the XC50 is reported as 1120 nM.
For `C=CCc1cc(OC)ccc1OCCCOc1c(C)nc(N)nc1N`, the XC50 was 3.2 nM.
Compound `O=C(NCCN1CCC(NC(=O)c2ccc(-c3ccccn3)s2)CC1)c1ccc(Cl)c(Cl)c1` has an XC50 of 881 nM.
`CN(C)c1ccc(-c2ccc(C(=O)NC3CCN(Cc4ccc(C(C)(C)C)cc4)CC3)s2)cc1` was tested, and the XC50 was 970 nM.
In the case of `CN(C)CCCOc1ccccc1CN1CC[C@H](NC(=O)c2ccc(Cl)c(Cl)c2)C1`, the XC50 is reported as 1110 nM.
`Cc1cc(O)nc(NC(=N)NOCCCc2ccccc2)n1` showed an XC50 of 760 nM.
For `O=C(/C=C/c1ccc(Cl)c(Cl)c1)NCCCCCN1CCCC(C(=O)Nc2ccc(Cl)cc2)C1` (stereo unspecified), the XC50 was 851 nM.
`Cc1[nH]c2ccc(NS(C)(=O)=O)cc2c1C1CCN(CCC2CCN(C(=O)/C=C/c3ccc(Cl)c(Cl)c3)CC2)CC1` was tested, and the XC50 was 844 nM.
In the case of `CCCCNc1cc(NCCCC)c2c(n1)[nH]c1ccccc12`, the XC50 is reported as 570 nM.
Compound `C=CCc1cc(Br)ccc1OCCCOc1c(N)nc(N)nc1N` has an XC50 of 192 nM.
`O=C(Nc1cccc(CN2CCCN(Cc3ncc[nH]3)CC2)c1)c1ccc2ccccc2c1` showed an XC50 of 632 nM.
`Cc1noc(C)c1-c1cccc(CNCc2ccc(-c3ccc(-c4nc5cc(C(F)(F)F)ccc5[nH]4)cc3)cc2)c1` was tested, and the XC50 was 172 nM.
For `CCN(CC)CCN1C(=O)C(O)(c2ccccc2Cl)c2c1cc(C(N)=O)cc2C(F)(F)F` (stereo unspecified), the XC50 was 703 nM.
`CCNc1cc(C(=O)N[C@@H](Cc2ccccc2)[C@H](O)CNC(C)Cc2cccc(Cl)c2)cc(N2CCCCS2(=O)=O)c1` (stereo partly specified) gave an XC50 of 496 nM.
With `CCC(C)CC(=O)Nc1ccc(OC)c(S(=O)(=O)N[C@@H]2CCN(C#N)C2)c1` (stereo partly specified) the XC50 was 1490 nM.
In the case of `Cc1ccc(-n2c(=O)c3c(n4c(SC(C)C)nnc24)-c2ccccc2CC32CCCCC2)cc1`, the XC50 is reported as 946 nM.
`Fc1ccc2[nH]c(-c3ccc(-c4ccc(CNCCN5CCNCC5)cc4)s3)nc2c1` was tested, and the XC50 was 779 nM.
In the case of `Cc1ccccc1-c1nc2c(CN3CCC(O)(c4ccccc4)CC3)c(O)ccc2[nH]1`, the XC50 is reported as 866 nM.
`O=C(Nc1cccc(CN2CCCN(Cc3ccc(O)cc3)CC2)c1)c1cc2ccccc2s1` showed an XC50 of 362 nM.
`Fc1ccccc1COc1ccc(Nc2ncnc3ccc(-c4nnc(C(F)(F)F)o4)cc23)cc1Cl` was tested, and the XC50 was 731 nM.
Compound `Cc1ccc(N2CCN(CCCCNC(=O)c3ccc(NC(=O)c4ccc(Cl)cc4)cc3)CC2)c(C)c1` has an XC50 of 764 nM.
Compound `CCCCCC(=O)N1CCOC(CCN2CCc3c(c4ccccc4n3C)C2)(c2ccc(Cl)c(Cl)c2)C1` (stereo unspecified) has an XC50 of 982 nM.
For `COc1cc(CCNc2nc(NCc3ccccc3-c3ccccc3)nc(N3CCC(N)CC3)n2)ccc1O`, the XC50 was 817 nM.
For `Cc1ccccc1C1CCN(C2CCC(NC(=O)/C=C/c3cccc(Cl)c3F)CC2)CC1` (stereo unspecified), the XC50 was 1140 nM.
For `O=C(c1cc(-c2ccco2)n[nH]1)N1CCN(S(=O)(=O)c2ccc(Cl)cc2)CC1`, the XC50 was 356 nM.
With `NC(=O)c1ccc(-n2cnc3cc(F)ccc32)cc1OCc1ccccc1C(F)(F)F.NC(=O)c1ccc(-n2cnc3ccc(F)cc32)cc1OCc1ccccc1C(F)(F)F` the XC50 was 363 nM.
`CCOC(C(=O)OCC1CCCN1C)(c1ccccc1)c1ccccc1` (stereo unspecified) gave an XC50 of 863 nM.
In the case of `CC(C)(C)NCCN(Cc1ccc(-c2ccc(C(F)(F)F)cc2)cc1)C(=O)Cn1c(CCc2cccc(F)c2F)nc(=O)c2ccccc21`, the XC50 is reported as 764 nM.
With `O=C(NC1CCN(CCC[C@]2(c3ccc(Cl)c(Cl)c3)CCCN(C(=O)c3ccccc3)C2)CC1)c1ccc(Cl)cc1` the XC50 was 899 nM.
For `Cc1cccc2nc(-c3cccc(-c4ccc(NC(=O)COC(C)C)cc4)c3)[nH]c12`, the XC50 was 1190 nM.
`CCc1c(C)nc(-n2nc(C)cc2NC(=O)C2c3ccccc3Oc3ccccc32)[nH]c1=O` gave an XC50 of 952 nM.
In the case of `Cc1[nH]c2ccccc2c1C1=CCN(CCN2CCOc3c(Br)cccc3C2=O)CC1`, the XC50 is reported as 797 nM.
`c1ccc(-c2[nH]c3ccccc3c2CN2CCC(N3CCCCC3)CC2)nc1` gave an XC50 of 1210 nM.
`COC(=O)C1=C(C)NC2=C(C(=O)CC(c3ccc(OC)c(OC)c3)C2)C1c1cccc(O)c1` (stereo unspecified) showed an XC50 of 729 nM.
With `OC(CNc1ccnc(Nc2cccc(Cl)c2)n1)c1ccc(C(F)(F)F)cc1` (stereo unspecified) the XC50 was 768 nM.
Compound `Cc1noc(-c2ccc(O)cc2O)c1-c1ccc2c(c1)OCCCO2` has an XC50 of 892 nM.
`CN(C)CCNCc1ncsc1-c1ccc2c(Nc3ccc(F)cc3Cl)ccnc2c1` showed an XC50 of 1470 nM.
For `N=C(N)Nc1ccc(C(=O)O)c(O)c1`, the XC50 was 1030 nM.
Work on `CC(C)CNCc1ccc(-c2ccc(CN(C(=O)Nc3ccccc3)C3CCN(Cc4ccccc4)CC3)cc2)cc1` yielded an XC50 of 680 nM.
With `O=C(c1ccc(-c2ccc(-c3nc4cc(C(F)(F)F)ccc4[nH]3)s2)cc1)N1CCN(CCc2ccccc2)CC1` the XC50 was 592 nM.
With `Cc1ccc(CNC(=O)[C@H](Cc2ccccc2)Nc2cc(C)nc(NCC3CCCCC3)n2)cc1` the XC50 was 899 nM.
`CN1CCC(N2CCC(Oc3cccc(C(=O)NCCCC4CCCC4)c3)CC2)CC1` gave an XC50 of 843 nM.
